#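 Protocol summary: plate cells (96-well), add compound at 5 concentrations, incubate 48 h, interpolate endpoints linearly. Here, GI50 denotes the concentration required for 50% inhibition of growth.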 Activity calls are given as the source filed them. Cut-off read from the data, not from the text of the source: active = GI50 up to about 1.1 µM and inactive = higher.
# Key:
# Test in all cases: growth of human tumour cells (NCI), 48 h
# 786-0 = test system: 786-0
# BT-549 = test system: BT-549
# DU-145 = test system: DU-145
# EKVX = test system: EKVX
# HCC 2998 = test system: HCC 2998
# HT-29 = test system: HT-29
# Hs-578T = test system: Hs-578T
# LOX IMVI = test system: LOX IMVI
# MCF7 = test system: MCF7
# MDA-MB-231 = test system: MDA-MB-231
# NCI-H226 = test system: NCI-H226
# NCI/ADR-RES = test system: NCI/ADR-RES
# SK-MEL-2 = test system: SK-MEL-2
# SNB-75 = test system: SNB-75
# SW-620 = test system: SW-620
# UO-31 = test system: UO-31
# CCRF-CEM = test system: CCRF-CEM
# HOP-92 = test system: HOP-92
# MOLT-4 = test system: MOLT-4
# RPMI-8226 = test system: RPMI-8226
Structure (SMILES),GI50 (786-0),GI50 (BT-549),GI50 (DU-145),GI50 (EKVX),GI50 (HCC 2998),GI50 (HT-29),GI50 (Hs-578T),GI50 (LOX IMVI),GI50 (MCF7),GI50 (MDA-MB-231),GI50 (NCI-H226),GI50 (NCI/ADR-RES),GI50 (SK-MEL-2),GI50 (SNB-75),GI50 (SW-620),GI50 (UO-31),GI50 (CCRF-CEM),GI50 (HOP-92),GI50 (MOLT-4),GI50 (RPMI-8226)
Cc1cc(S(=O)(=O)N=C2NCC(C)(C)CN2)c(S)cc1Cl,32.1 µM (inactive),29.5 µM (inactive),83.6 µM (inactive),48.8 µM (inactive),67.6 µM (inactive),19.3 µM (inactive),32 µM (inactive),15.5 µM (inactive),42.5 µM (inactive),43.4 µM (inactive),32.1 µM (inactive),50.8 µM (inactive),21.3 µM (inactive),48.5 µM (inactive),17.9 µM (inactive),44.1 µM (inactive),,,,
CCC(=O)O[C@H]1CC[C@H]2[C@@H]3CCC4=CC(=O)C=C[C@]4(O)[C@H]3CC[C@]12C,33.7 µM (inactive),20.5 µM (inactive),22.8 µM (inactive),25.9 µM (inactive),,19.1 µM (inactive),39.5 µM (inactive),16.7 µM (inactive),23.9 µM (inactive),22.7 µM (inactive),> 100 µM (inactive),37 µM (inactive),15.9 µM (inactive),,17.9 µM (inactive),64.1 µM (inactive),4.09 µM (inactive),31.2 µM (inactive),8.87 µM (inactive),8.55 µM (inactive)
O=C(Nc1nnc(-c2ccccc2)o1)C(SC(=S)N1CCCC1)c1ccccc1 (centres undefined),26.4 µM (inactive),23.1 µM (inactive),30.6 µM (inactive),22.3 µM (inactive),,35.1 µM (inactive),87.9 µM (inactive),14.1 µM (inactive),31.3 µM (inactive),39 µM (inactive),32.1 µM (inactive),6.67 µM (inactive),25.5 µM (inactive),40.8 µM (inactive),49.1 µM (inactive),13.3 µM (inactive),13.4 µM (inactive),,5 µM (inactive),24.3 µM (inactive)
O=C1C=CC2(O[C@H](c3ccccc3)[C@@H](c3ccccc3)O2)C(SC(=O)c2ccccc2)C1 (some centres undefined),0.385 µM (active),0.433 µM (active),3.34 µM (inactive),0.182 µM (active),,2.03 µM (inactive),1.62 µM (inactive),1.12 µM (inactive),0.371 µM (active),3.9 µM (inactive),1.74 µM (inactive),1.57 µM (inactive),1.72 µM (inactive),2.09 µM (inactive),0.288 µM (active),1.37 µM (inactive),,,0.35 µM (active),0.979 µM (active)
Cc1ccc2c(c1)C(O)(c1ccccc1)CCS2 (centres undefined),32.5 µM (inactive),27.3 µM (inactive),46.3 µM (inactive),51.4 µM (inactive),,25.4 µM (inactive),34.1 µM (inactive),19.9 µM (inactive),39.4 µM (inactive),18 µM (inactive),27.5 µM (inactive),34 µM (inactive),25.2 µM (inactive),48.2 µM (inactive),31 µM (inactive),19.2 µM (inactive),,17.7 µM (inactive),15.3 µM (inactive),
Nc1c(C(=O)O)nnc2cc(Cl)ccc12,> 100 µM (inactive),> 100 µM (inactive),> 100 µM (inactive),> 100 µM (inactive),> 100 µM (inactive),> 100 µM (inactive),> 100 µM (inactive),> 100 µM (inactive),> 100 µM (inactive),> 100 µM (inactive),> 100 µM (inactive),> 100 µM (inactive),> 100 µM (inactive),> 100 µM (inactive),> 100 µM (inactive),> 100 µM (inactive),> 100 µM (inactive),,> 100 µM (inactive),

# Source: ChEMBL document CHEMBL1201862, “PubChem BioAssay data set” (2004)
